Test system: LG0567-F671-PDC KRAS tumor spheroid viability
Assay: Anticancer human tumor LG0567-F671-PDC patient-derived lung adenocarcinoma cell line growth inhibition [KRAS2]
Details: spheroids with HUVEC and MSC; for IC50: curve of first compound; for viability, T/C: stronger effect = lower value
Outline: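 KRAS-mutant tumor cells were grown as spheroids with HUVEC endothelial cells and human MSCs as stroma. Targeted agents were tested alone and with KRAS pathway inhibitors. Doses started at or near clinical Cmax, or 10 microM, descending half-log.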

[1] = second compound 0.1 µM, first compound 0.01 µM
[2] = second compound 0.1 µM, first compound 0.0316 µM
[3] = second compound 0.1 µM, first compound 0.1 µM
[4] = second compound 0.316 µM, first compound 0.01 µM
[5] = second compound 0.316 µM, first compound 0.0316 µM
[6] = second compound 0.316 µM, first compound 0.1 µM
[7] = second compound 1 µM, first compound 0.01 µM
[8] = second compound 1 µM, first compound 0.0316 µM
[9] = second compound 1 µM, first compound 0.1 µM
[10] = second compound 3.16 µM, first compound 0.01 µM
[11] = second compound 3.16 µM, first compound 0.0316 µM
[12] = second compound 3.16 µM, first compound 0.1 µM
[13] = second compound 10 µM, first compound 0.01 µM
[14] = second compound 10 µM, first compound 0.0316 µM
[15] = second compound 10 µM, first compound 0.1 µM
[16] = second compound 0.1 µM, first compound 0.000316 µM
[17] = second compound 0.1 µM, first compound 0.001 µM
[18] = second compound 0.1 µM, first compound 0.00316 µM
[19] = second compound 0.316 µM, first compound 0.000316 µM
[20] = second compound 0.316 µM, first compound 0.001 µM
[21] = second compound 0.316 µM, first compound 0.00316 µM
[22] = second compound 1 µM, first compound 0.000316 µM
[23] = second compound 1 µM, first compound 0.001 µM
[24] = second compound 1 µM, first compound 0.00316 µM
[25] = second compound 3.16 µM, first compound 0.000316 µM
[26] = second compound 3.16 µM, first compound 0.001 µM
[27] = second compound 3.16 µM, first compound 0.00316 µM
[28] = second compound 10 µM, first compound 0.000316 µM
[29] = second compound 10 µM, first compound 0.001 µM
[30] = second compound 10 µM, first compound 0.00316 µM
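Note: drug exposure lasted seven days after spheroids formed for three days.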
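Throughout, for viability, T/C: 100% = DMSO vehicle control viability.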

Row | Compound | IC50 (second compound 0.1 µM) [nM] | IC50 (second compound 0.316 µM) [nM] | IC50 (second compound 1 µM) [nM] | IC50 (second compound 3.16 µM) [nM] | IC50 (second compound 10 µM) [nM] | viability, T/C [1] [%] | viability, T/C [2] [%] | viability, T/C [3] [%] | viability, T/C [4] [%] | viability, T/C [5] [%] | viability, T/C [6] [%] | viability, T/C [7] [%] | viability, T/C [8] [%] | viability, T/C [9] [%] | viability, T/C [10] [%] | viability, T/C [11] [%] | viability, T/C [12] [%] | viability, T/C [13] [%] | viability, T/C [14] [%] | viability, T/C [15] [%] | other results
1 | CC(=O)OC12COC1CC(O)C1(C)C(=O)C(O)C3=C(C)C(OC(=O)C(O)C(NC(=O)OC(C)(C)C)c4ccccc4)CC(O)(C(OC(=O)c4ccccc4)C21)C3(C)C (stereo not given) + C=CC(=O)N1CCN(c2nc(=O)n(-c3c(C)ccnc3C(C)C)c3nc(-c4c(O)cccc4F)c(F)cc23)C(C)C1 | < 10 | < 10 | < 10 | < 10 | < 10 | 13.4 | 14.2 | 14.2 | 13.7 | 12 | 12.1 | 12.6 | 10.2 | 10.1 | 10.7 | 9.62 | 9.62 | 13.7 | 14 | 15.6 | viability, T/C (second compound 0.1 µM, first compound 0.316 µM): 14.9%; viability, T/C (second compound 0.1 µM, first compound 1 µM): 18.2%; viability, T/C (second compound 0.1 µM, first compound 3.16 µM): 13.5%; viability, T/C (second compound 0.316 µM, first compound 0.316 µM): 12.3%; viability, T/C (second compound 0.316 µM, first compound 1 µM): 16.3%; viability, T/C (second compound 0.316 µM, first compound 3.16 µM): 12.7%; viability, T/C (second compound 1 µM, first compound 0.316 µM): 12%; viability, T/C (second compound 1 µM, first compound 1 µM): 12.8%; viability, T/C (second compound 1 µM, first compound 3.16 µM): 10.6%; viability, T/C (second compound 3.16 µM, first compound 0.316 µM): 9.52%; viability, T/C (second compound 3.16 µM, first compound 1 µM): 13.2%; viability, T/C (second compound 3.16 µM, first compound 3.16 µM): 10.1%; viability, T/C (second compound 10 µM, first compound 0.316 µM): 14.4%; viability, T/C (second compound 10 µM, first compound 1 µM): 14.5%; viability, T/C (second compound 10 µM, first compound 3.16 µM): 12.1%
2 | CN(C)C/C=C/C(=O)Nc1cc2c(Nc3ccc(F)c(Cl)c3)ncnc2cc1O[C@H]1CCOC1 + C=CC(=O)N1CCN(c2nc(=O)n(-c3c(C)ccnc3C(C)C)c3nc(-c4c(O)cccc4F)c(F)cc23)C(C)C1 | < 0.316 | < 0.316 | < 0.316 | < 0.316 | < 0.316 | 18.4 | 15.4 | 26.1 | 21.6 | 24.1 | 28.4 | 26.2 | 27.5 | 24.4 | 14.5 | 21.8 | 22.5 | 13.1 | 18.5 | 13.3 | viability, T/C [16]: 32.6%; viability, T/C [17]: 26.2%; viability, T/C [18]: 23.1%; viability, T/C [19]: 28.6%; viability, T/C [20]: 28.2%; viability, T/C [21]: 26.1%; viability, T/C [22]: 25.1%; viability, T/C [23]: 24.7%; viability, T/C [24]: 24.5%; viability, T/C [25]: 18.6%; viability, T/C [26]: 22.9%; viability, T/C [27]: 26.1%; viability, T/C [28]: 23%; viability, T/C [29]: 22.9%; viability, T/C [30]: 15.8%
3 | Cn1ncnc1[C@H]1c2n[nH]c(=O)c3cc(F)cc(c23)N[C@@H]1c1ccc(F)cc1 + C=CC(=O)N1CCN(c2nc(=O)n(-c3c(C)ccnc3C(C)C)c3nc(-c4c(O)cccc4F)c(F)cc23)C(C)C1 | < 0.316 | < 0.316 | < 0.316 | < 0.316 | < 0.316 | 21.3 | 23.8 | 24.4 | 20.8 | 24.1 | 21.6 | 20.9 | 23.6 | 22.8 | 25.5 | 23.4 | 21.1 | 20.2 | 19.6 | 20.1 | viability, T/C [16]: 24.7%; viability, T/C [17]: 27.1%; viability, T/C [18]: 21.8%; viability, T/C [19]: 25.5%; viability, T/C [20]: 26.2%; viability, T/C [21]: 23.1%; viability, T/C [22]: 29.7%; viability, T/C [23]: 27.1%; viability, T/C [24]: 27.1%; viability, T/C [25]: 24.8%; viability, T/C [26]: 25.9%; viability, T/C [27]: 25.2%; viability, T/C [28]: 21.9%; viability, T/C [29]: 23.5%; viability, T/C [30]: 24.6%
